The assay deals with primary mouse neuroglial cultures. Description: Cell death by high content imaging (Hoechst/NeuN nuclear shrinkage) after chronic hyperstimulation. It counts as cell-based. The following applies: 1 mM. On the procedure: To determine whether pyruvate and citrate protect neurons and glial cells from cell death induced by chronic electrical hyperstimulation. To assess protection from cell death induced by repeated hyperstimulation, primary mouse neuroglial cultures were assayed. Neuroglial cell cultures were prepared and grown until DIV14 as described above. From DIV14 until DIV17 they were switched to NBM containing B27, low (2.5 mM) glucose, and low (0.1 mM) Mg^2+ or high (0.8 mM) Mg^2+. Incubation in low (0.1 mM) Mg^2+ medium increases the neuronal firing rates, thus creating a state of chronic hyperstimulation. The test nutrients (pyruvate or citrate) were supplied through the medium from DIV14 until DIV17. On DIV17, the cell nuclei were stained with the Hoechst dye and co-immunolabelled for NeuN, a protein found only in the nuclei of neurons. The neuronal and non-neuronal cell nuclei were scored for nuclear shrinkage, a hallmark of cell death, by high content imaging.
To assess cell death by high content imaging the cells were fixed on DIV17 in 1% formaldehyde, permeabilized with ethanol and incubated with a rabbit polyclonal IgG antibody against NeuN, a neuron-specific protein localized to the nucleus, followed by detection with a secondary anti-rabbit IgG antibody linked to a red fluorescent label. Neuronal and non-neuronal cell nuclei were then counterstained with the blue fluorescent nuclear dye Hoechst. The nuclei were counted by a high content imager based on signal intensity and size. A cut-off value was applied to exclude objects of low signal intensity considered noise. Then, cut-off values were applied to exclude objects with an area below 30 μM^2 considered cell debris and objects with an area above 300 μM^2 considered cell clumps. A boundary of 60 μM^2 was set to distinguish between nuclei from alive and dead cells. Objects areas of 30 μM^2 to 60 μM^2 were counted as nuclei from dead cells, while object areas of 60 μM^2 to 300 μM^2 were counted as nuclei from alive cells. The counting was done at 20-fold magnification on a fixed number of optical fields per well. The counts of nuclei from dead neurons or dead cells were related to the number of alive neurons or alive cells, respectively, in the same well.
Neuroglial cell cultures were supplemented with 1 mM citrate from DIV14 until DIV17. On DIV17, total cell death and neuron-specific cell death were quantified by high content imaging. The total number of Hoechst positive objects or NeuN positive objects prior to applying cut-off values for the signal intensity and the area size was equal between the different groups (FIG. 10 A, D).

For the compound `O=C(O)CC(O)(CC(=O)O)C(=O)O` [citrate], the “increase in dead cell counts from high Mg2+ to low Mg2+ medium” value (DIV14-DIV17, chronic hyperstimulation, FIG. 10C/11C) is recorded as approximately 4%. Moreover, the dead cell counts is given as approximately 19% (DIV14-DIV17, high (0.8 mM) Mg2+ medium, FIG. 10C/11C) and approximately 23% (DIV14-DIV17, low (0.1 mM) Mg2+ medium, FIG. 10C/11C). In addition, the “dead neuron count (neuron death)” value is reported as −1.5% (DIV14-DIV17, high Mg2+ medium, FIG. 10F/11F) and approximately 1.4% (DIV14-DIV17, low Mg2+ medium, FIG. 10F/11F). In addition, the “effect on alive cell count” value (DIV14-DIV17, FIG. 10B/11B) is recorded as “not impacting”. Also, the “effect on rise in neuron death induced by chronic hyperstimulation” value (DIV14-DIV17, FIG. 10F/11F) is on record as “entirely blocked”.

Values taken from US20240415793A1, “Neuroprotective composition comprising pyruvate and citrate” (N.V. Nutricia, priority 2022, published 2024).
